# Assay results from patent publication US8524702B2, “Substituted benzoazepines as toll-like receptor modulators” (VentiRx Pharmaceuticals, Inc., priority 2009, dated 2013).
# Structures can show the parent of a compound that is named as a salt.
# What was measured:
# Type in all cases: cell-based
# TLR8 [1] = target: T1, TLR8 (Homo sapiens, UniProt Q9NR97); assay: PBMC assay for TLR8 (TNFα in supernatants by ELISA); design: Peripheral blood mononuclear cells (PBMCs) from human blood were isolated; endogenous in cells; host or cells: human PBMCs; details: human PBMCs incubated with compound overnight, MC50 = concentration at which 50% of the maximum induction is seen
# T1 sequence (Q9NR97 27-1041): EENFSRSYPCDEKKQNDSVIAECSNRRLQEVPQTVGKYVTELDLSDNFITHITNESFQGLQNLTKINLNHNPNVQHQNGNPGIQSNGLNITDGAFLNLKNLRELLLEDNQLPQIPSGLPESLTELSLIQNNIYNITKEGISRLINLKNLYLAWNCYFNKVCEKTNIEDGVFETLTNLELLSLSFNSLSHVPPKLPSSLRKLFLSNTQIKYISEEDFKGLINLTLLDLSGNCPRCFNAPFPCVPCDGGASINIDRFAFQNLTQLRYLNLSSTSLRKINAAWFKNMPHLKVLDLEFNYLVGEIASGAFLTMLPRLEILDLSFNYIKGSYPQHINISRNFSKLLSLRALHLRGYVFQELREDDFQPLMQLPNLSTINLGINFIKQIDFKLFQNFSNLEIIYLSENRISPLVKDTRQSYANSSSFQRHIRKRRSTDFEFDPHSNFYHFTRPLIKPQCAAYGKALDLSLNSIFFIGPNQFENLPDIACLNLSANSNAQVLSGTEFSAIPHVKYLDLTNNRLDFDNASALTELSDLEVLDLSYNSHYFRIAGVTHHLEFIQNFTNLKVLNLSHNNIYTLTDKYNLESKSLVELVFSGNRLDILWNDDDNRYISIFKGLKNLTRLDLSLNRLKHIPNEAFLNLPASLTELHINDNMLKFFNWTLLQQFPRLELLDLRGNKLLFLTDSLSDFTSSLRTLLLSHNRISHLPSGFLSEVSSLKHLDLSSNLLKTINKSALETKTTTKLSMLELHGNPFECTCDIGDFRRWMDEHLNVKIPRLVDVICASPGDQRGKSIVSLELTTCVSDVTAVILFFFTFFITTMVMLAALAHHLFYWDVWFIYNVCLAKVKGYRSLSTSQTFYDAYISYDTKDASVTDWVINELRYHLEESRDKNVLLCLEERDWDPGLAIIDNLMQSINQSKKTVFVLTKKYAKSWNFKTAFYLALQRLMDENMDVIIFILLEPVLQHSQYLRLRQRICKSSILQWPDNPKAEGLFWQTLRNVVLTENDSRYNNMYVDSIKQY
# Protocol: (§1) Peripheral blood mononuclear cells (PBMCs) from human blood were isolated using BD Vacutainer Cell Preparation Tubes with sodium citrate. Cells were incubated with compound overnight. TLR8 activity was assayed by measuring the amount of TNFα in supernatants by ELISA. TLR7 activity was assayed by measuring the amount of IFNα in supernatants by ELISA (R&D Systems). […] The results of this assay are shown below in Tables 2 and 3.
# (§2) MC50 numbers are represented as factors of ten, for example, + indicates an MC50 value of ×10^4, or a value in the tens of thousands of nanomolar (nM range); ++ indicates an MC50 value of ×10^3, or a value in the thousands; +++ indicates an MC50 value of ×10^2, or a value in the hundreds; and ++++ indicates an MC50 value of ×10^1 or 10°, or a value in the tens or ones.
# TLR7 = target: T2, TLR7 (Homo sapiens, UniProt Q9NYK1); assay: PBMC assay for TLR7 (IFNα in supernatants by ELISA); design: Peripheral blood mononuclear cells (PBMCs) from human blood were isolated; endogenous in cells; host or cells: human PBMCs; details: human PBMCs incubated with compound overnight, MC50 = concentration at which 50% of the maximum induction is seen
# T2 sequence (Q9NYK1 27-1049): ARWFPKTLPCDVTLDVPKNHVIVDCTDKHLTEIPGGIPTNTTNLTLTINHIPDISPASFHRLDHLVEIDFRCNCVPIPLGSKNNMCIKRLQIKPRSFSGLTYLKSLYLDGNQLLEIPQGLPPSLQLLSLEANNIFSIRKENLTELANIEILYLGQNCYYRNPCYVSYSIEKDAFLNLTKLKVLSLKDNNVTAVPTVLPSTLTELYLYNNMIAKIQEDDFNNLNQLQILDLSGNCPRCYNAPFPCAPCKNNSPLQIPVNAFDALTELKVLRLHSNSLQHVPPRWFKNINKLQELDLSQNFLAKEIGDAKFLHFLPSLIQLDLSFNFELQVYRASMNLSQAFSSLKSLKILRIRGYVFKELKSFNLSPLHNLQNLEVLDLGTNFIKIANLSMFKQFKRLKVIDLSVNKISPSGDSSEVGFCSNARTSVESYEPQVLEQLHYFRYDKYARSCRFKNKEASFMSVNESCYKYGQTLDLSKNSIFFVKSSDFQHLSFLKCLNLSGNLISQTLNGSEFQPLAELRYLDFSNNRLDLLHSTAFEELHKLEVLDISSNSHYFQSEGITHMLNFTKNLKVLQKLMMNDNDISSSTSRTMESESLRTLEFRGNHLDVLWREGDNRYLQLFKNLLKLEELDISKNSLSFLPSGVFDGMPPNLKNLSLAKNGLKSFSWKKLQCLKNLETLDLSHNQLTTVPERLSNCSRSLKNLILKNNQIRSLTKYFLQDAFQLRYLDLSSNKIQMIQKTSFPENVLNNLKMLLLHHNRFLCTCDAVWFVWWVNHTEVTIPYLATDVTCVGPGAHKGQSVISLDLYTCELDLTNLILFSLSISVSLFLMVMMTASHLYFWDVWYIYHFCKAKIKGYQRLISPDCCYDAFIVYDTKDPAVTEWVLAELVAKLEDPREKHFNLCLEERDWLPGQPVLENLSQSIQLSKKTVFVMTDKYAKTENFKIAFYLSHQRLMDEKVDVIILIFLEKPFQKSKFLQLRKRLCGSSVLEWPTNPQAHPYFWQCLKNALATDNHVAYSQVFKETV
# Protocol: as §1, §2
# TLR8 [2] = target: T1, TLR8; assay: TLR8 activity, MC50 values (procedure only by reference to Gorden et al. and Zhu et al.); details: assay format not given
# Source text: Activity of the compounds can be assessed according to procedures described in, e.g., Gorden et al., Journal of Immunology 177, pp. 8164-8170 (2006) and Zhu et al., Molecular Immunology, vol. 45 (11), pp. 3238-3242 (2008).
# MC50 values for TLR8 activity are, for example, as shown below: […]
Compound,EC50 (TLR8 [1]),EC50 (TLR7),EC50 (TLR8 [2])
"CCCN(CCC)C(=O)C1=Cc2ccc(-c3cccc(C(=O)N(C)C)c3)cc2N=C(N)C1 [Compound 138, (1E,4E)-2-amino-8-(3-(dimethylcarbamoyl)phenyl)-N,N-dipropyl-3H-benzo[b]azepine-4-carboxamide]",0.001 to 0.1 µM,1 to 10 µM,
"CCOC(=O)C1=Cc2ccc(-c3ccncc3)cc2N=C(N)C1 [Compound 143, (1E,4E)-ethyl 2-amino-8-(pyridin-4-yl)-3H-benzo[b]azepine-4-carboxylate]",0.001 to 0.1 µM,,0.045 µM
"CCOC(=O)C1=Cc2ccc(-c3cccc(C(=O)N(C)C)c3)cc2N=C(N)C1 [Compound 147, (1E,4E)-ethyl 2-amino-8-(3-(dimethylcarbamoyl)phenyl)-3H-benzo[b]azepine-4-carboxylate]",0.1 to 1 µM,1 to 10 µM,
"CCCN(CCC)C(=O)C1=Cc2ccc(-c3ccccc3C(=O)OCC)cc2N=C(N)C1 [Compound 203, Ethyl 2-((1E,4E)-2-amino-4-(dipropylcarbamoyl)-3H-benzo[b]azepin-8-yl)benzoate]",0.1 to 1 µM,1 to 10 µM,
"CCCN(CCCO)C(=O)C1=Cc2ccc(-c3ccccc3C(=O)OCC)cc2N=C(N)C1 [Compound 204, Ethyl 2-((1E,4E)-2-amino-4-((3-hydroxypropyl)(propyl)carbamoyl)-3H-benzo[b]azepin-8-yl)benzoate]",0.1 to 1 µM,1 to 10 µM,
"CCCN(CCC)C(=O)C1=Cc2ccc(-c3ccc(C(=O)OCOCC)cc3)cc2N=C(N)C1 [Compound 207, Ethoxymethyl 4-((1E,4E)-2-amino-4-(dipropylcarbamoyl)-3H-benzo[b]azepin-8-yl)benzoate]",1 to 10 µM,1 to 10 µM,
"CCCN(CCCO)C(=O)C1=Cc2ccc(-c3ccc(C(=O)OCC)c(F)c3)cc2N=C(N)C1 [Compound 211, Ethyl 4-((1E,4E)-2-amino-4-((3-hydroxypropyl)(propyl)carbamoyl)-3H-benzo[b]azepin-8-yl)-2-fluorobenzoate]",0.1 to 1 µM,1 to 10 µM,
"CCCN(CCC)C(=O)C1=Cc2ccc(-c3ccc(C(=O)OC)nc3)cc2N=C(N)C1 [Compound 212, Methyl 5-((1E,4E)-2-amino-4-(dipropylcarbamoyl)-3H-benzo[b]azepin-8-yl)picolinate]",0.1 to 1 µM,1 to 10 µM,
"CCCN(CCCO)C(=O)C1=Cc2ccc(-c3ccc(/C=C/C(=O)OCC)cc3)cc2N=C(N)C1 [Compound 220, (E)-Ethyl 3-(4-((1E,4E)-2-amino-4-((3-hydroxypropyl)(propyl)carbamoyl)-3H-benzo[b]azepin-8-yl)phenyl)acrylate]",0.1 to 1 µM,10 to 100 µM,

# Further lines, results first:
EC50 (TLR8 [1]),EC50 (TLR7),EC50 (TLR8 [2]),Compound
0.001 to 0.1 µM,1 to 10 µM,,"CCCN(CCC)C(=O)C1=Cc2ccc(-c3cccc(C#N)c3)cc2N=C(N)C1 [Compound 136, (1E,4E)-2-amino-8-(3-cyanophenyl)-N,N-dipropyl-3H-benzo[b]azepine-4-carboxamide]"
0.001 to 0.1 µM,10 to 100 µM,,"CCCN(CCC)C(=O)C1=Cc2ccc(-c3ccc(C#N)cc3)cc2N=C(N)C1 [Compound 137, (1E,4E)-2-amino-8-(4-cyanophenyl)-N,N-dipropyl-3H-benzo[b]azepine-4-carboxamide]"
0.1 to 1 µM,1 to 10 µM,,"CCCN(CCC)C(=O)C1=Cc2ccc(-c3ccc(C(=O)OCC)cc3)cc2N=C(N)C1 [Compound 139, ethyl 4-((1E,4E)-2-amino-4-(dipropylcarbamoyl)-3H-benzo[b]azepin-8-yl)benzoate]"
0.001 to 0.1 µM,1 to 10 µM,,"CCOC(=O)C1=Cc2ccc(-c3cccnc3)cc2N=C(N)C1 [Compound 142, (1E,4E)-ethyl 2-amino-8-(pyridin-3-yl)-3H-benzo[b]azepine-4-carboxylate]"
0.001 to 0.1 µM,1 to 10 µM,,"CCOC(=O)C1=Cc2ccc(-c3cncnc3)cc2N=C(N)C1 [Compound 144, (1E,4E)-ethyl 2-amino-8-(pyrimidin-5-yl)-3H-benzo[b]azepine-4-carboxylate]"
0.1 to 1 µM,1 to 10 µM,,"CCCN(Cc1ccccc1O)C(=O)C1=Cc2ccc(-c3ccc(C(=O)N4CCCC4)cc3)cc2N=C(N)C1 [Compound 174, (1E,4E)-2-amino-N-(2-hydroxybenzyl)-N-propyl-8-(4-(pyrrolidine-1-carbonyl)phenyl)-3H-benzo[b]azepine-4-carboxamide hydrochloride]"
0.001 to 0.1 µM,1 to 10 µM,,"CCCN(CCCO)C(=O)C1=Cc2ccc(-c3ccc(C(=O)N4CC[C@H](O)C4)cc3)cc2N=C(N)C1 [Compound 182, (1E,4E)-2-amino-N-(3-hydroxypropyl)-8-(4-((S)-3-hydroxypyrrolidine-1-carbonyl)phenyl)-N-propyl-3H-benzo[b]azepine-4-carboxamide]"
0.1 to 1 µM,1 to 10 µM,,"CCCN(CCC)C(=O)C1=Cc2ccc(-c3cccc(O)c3)cc2N=C(N)C1 [Compound 194, (1E,4E)-2-amino-8-(3-hydroxyphenyl)-N,N-dipropyl-3H-benzo[b]azepine-4-carboxamide]"
0.1 to 1 µM,0.1 to 1 µM,,"CCCN(CCC)C(=O)C1=Cc2ccc(-c3ccc(O)cc3)cc2N=C(N)C1 [Compound 195, (1E,4E)-2-amino-8-(4-hydroxyphenyl)-N,N-dipropyl-3H-benzo[b]azepine-4-carboxamide]"
0.1 to 1 µM,1 to 10 µM,,"CCCN(CCC)C(=O)C1=Cc2ccc(-c3ccc(C(=O)OC)cc3)cc2N=C(N)C1 [Compound 206, Methyl 4-((1E,4E)-2-amino-4-(dipropylcarbamoyl)-3H-benzo[b]azepin-8-yl)benzoate]"
0.1 to 1 µM,1 to 10 µM,,"CCCN(CCC)C(=O)C1=Cc2ccc(-c3ccc(C(=O)OCC)c(F)c3)cc2N=C(N)C1 [Compound 210, Ethyl 4-((1E,4E)-2-amino-4-(dipropylcarbamoyl)-3H-benzo[b]azepin-8-yl)-2-fluorobenzoate]"
